One block for each compound: values may come before it. Calls of active or inactive are those of the source.
Experiments:
[1] = Luminescence-based dose response cell-based high throughput screening assay for cytotoxic compounds using the IEC-6 intestinal epithelial cell line. [Related pubchem assays: 1858 (Summary AID.), 1825 (Counterscreen.), 1907 (Confirmation screen.)]; format: functional
Prothrombin = Prothrombin (Homo sapiens, UniProt P00734); assay: Thrombin 1536 HTS Dose Response Confirmation. [Related pubchem assays: 1046 (Thrombin 1536 HTS; hits were confirmed in this assay)]; format: functional
[2] = molecular target: Potassium voltage-gated channel subfamily KQT member 2 (Rattus norvegicus, UniProt O88943); assay: retigabine-insensitive KCNQ2 potentiators, concentration-response, dose response, cell-based, retigabine-insensitive compounds (AID 2654); format: functional
Sequence of Potassium voltage-gated channel subfamily KQT member 2 (O88943 whole entry): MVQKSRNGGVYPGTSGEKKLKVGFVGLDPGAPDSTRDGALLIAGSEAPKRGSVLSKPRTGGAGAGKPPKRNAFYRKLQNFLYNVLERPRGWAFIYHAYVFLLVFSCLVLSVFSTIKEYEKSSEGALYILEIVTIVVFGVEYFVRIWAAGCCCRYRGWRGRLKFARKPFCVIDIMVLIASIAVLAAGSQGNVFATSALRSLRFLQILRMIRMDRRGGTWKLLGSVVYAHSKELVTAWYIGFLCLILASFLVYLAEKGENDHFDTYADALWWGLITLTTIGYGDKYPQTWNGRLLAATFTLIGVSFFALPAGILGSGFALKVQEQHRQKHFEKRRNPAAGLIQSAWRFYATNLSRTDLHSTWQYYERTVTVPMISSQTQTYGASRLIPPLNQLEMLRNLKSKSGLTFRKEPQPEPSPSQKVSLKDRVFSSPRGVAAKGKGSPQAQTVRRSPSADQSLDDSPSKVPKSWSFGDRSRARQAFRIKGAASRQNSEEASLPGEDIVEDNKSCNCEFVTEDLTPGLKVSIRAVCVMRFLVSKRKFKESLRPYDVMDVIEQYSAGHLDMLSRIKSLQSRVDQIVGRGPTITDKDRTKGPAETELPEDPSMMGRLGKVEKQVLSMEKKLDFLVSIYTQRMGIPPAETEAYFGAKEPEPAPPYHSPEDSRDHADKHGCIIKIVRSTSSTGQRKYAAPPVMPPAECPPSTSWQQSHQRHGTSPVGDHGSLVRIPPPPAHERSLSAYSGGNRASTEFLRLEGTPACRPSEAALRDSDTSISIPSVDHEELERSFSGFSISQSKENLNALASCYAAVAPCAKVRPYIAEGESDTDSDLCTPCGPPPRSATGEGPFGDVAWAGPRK

Hexokinase HKDC1 = molecular target: T1, Hexokinase HKDC1 (Homo sapiens, UniProt Q2TB90); assay: HKDC1 hexokinase inhibitors, dose response, biochemical, W721R variant (AID 504729); format: functional
T1 sequence (Q2TB90 whole entry): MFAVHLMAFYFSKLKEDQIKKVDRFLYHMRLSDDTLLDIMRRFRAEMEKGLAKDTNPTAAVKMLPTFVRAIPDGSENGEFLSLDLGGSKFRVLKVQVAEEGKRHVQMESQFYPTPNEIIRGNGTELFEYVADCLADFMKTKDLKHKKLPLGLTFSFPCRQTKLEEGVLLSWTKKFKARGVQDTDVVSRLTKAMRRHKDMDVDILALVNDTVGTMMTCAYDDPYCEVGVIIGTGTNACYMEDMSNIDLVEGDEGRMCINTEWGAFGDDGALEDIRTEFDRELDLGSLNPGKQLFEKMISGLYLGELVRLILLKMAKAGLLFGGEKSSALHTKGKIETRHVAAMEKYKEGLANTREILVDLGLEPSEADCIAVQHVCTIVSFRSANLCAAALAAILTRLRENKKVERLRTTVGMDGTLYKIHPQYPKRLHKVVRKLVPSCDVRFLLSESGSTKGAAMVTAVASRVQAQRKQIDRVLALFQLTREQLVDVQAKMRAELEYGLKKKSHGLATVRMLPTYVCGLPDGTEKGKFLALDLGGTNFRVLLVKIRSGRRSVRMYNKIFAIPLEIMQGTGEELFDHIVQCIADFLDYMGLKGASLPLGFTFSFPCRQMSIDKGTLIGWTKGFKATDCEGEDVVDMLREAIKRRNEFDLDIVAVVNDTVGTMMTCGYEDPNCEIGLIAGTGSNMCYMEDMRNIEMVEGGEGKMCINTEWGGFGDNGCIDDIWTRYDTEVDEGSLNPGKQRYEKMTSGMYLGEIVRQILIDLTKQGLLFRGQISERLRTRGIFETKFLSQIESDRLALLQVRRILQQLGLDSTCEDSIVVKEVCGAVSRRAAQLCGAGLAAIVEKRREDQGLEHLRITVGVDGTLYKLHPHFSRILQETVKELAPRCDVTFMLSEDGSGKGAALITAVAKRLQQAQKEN

Trypsin = Trypsin (Sus scrofa, UniProt P00761); assay: porcine trypsin inhibitors, dose response, selectivity assay for Rce1 protease inhibitor project, biochemical, quenched peptide fluorescence, cherry-pick (AID 488789)
Sequence of Trypsin (P00761 whole entry): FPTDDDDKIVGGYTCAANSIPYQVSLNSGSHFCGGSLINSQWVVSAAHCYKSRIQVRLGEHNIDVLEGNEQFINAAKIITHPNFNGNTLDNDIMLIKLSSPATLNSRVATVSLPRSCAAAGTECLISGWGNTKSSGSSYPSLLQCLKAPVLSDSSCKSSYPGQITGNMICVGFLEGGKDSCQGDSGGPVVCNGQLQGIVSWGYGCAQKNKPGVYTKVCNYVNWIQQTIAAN

[3] = cytotoxicity in HEK-293T cells, dose response, cytotoxicity control for BCR NF-kB inhibitor project, luminescence, B-cell screen hits (AID 489021); format: functional, cell-based;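 further: HEK-293T cells carrying an NF-kB luciferase reporter; cells exposed to compound for about 14 hours before viability readout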
[4] = molecular target: T2, Mannose-6-phosphate isomerase (Homo sapiens, UniProt P34949); assay: human PMI inhibitors, high substrate, primary screen, biochemical, fluorescence intensity, high mannose 6-phosphate (AID 1220)
T2 sequence (P34949 whole entry): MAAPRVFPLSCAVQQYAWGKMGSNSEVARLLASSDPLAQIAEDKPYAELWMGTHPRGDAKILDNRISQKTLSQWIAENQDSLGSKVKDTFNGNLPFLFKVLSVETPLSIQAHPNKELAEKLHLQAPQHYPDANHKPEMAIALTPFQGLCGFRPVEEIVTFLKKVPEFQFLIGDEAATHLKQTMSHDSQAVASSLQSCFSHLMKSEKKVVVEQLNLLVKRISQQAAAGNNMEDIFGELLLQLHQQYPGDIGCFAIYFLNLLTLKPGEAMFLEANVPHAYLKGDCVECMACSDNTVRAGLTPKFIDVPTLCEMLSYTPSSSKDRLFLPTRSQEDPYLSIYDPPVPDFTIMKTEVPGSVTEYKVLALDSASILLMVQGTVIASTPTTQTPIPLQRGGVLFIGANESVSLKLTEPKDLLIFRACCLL

[5] = molecular target: T3, Carboxy-terminal domain RNA polymerase II polypeptide A small phosphatase 1 (Homo sapiens, UniProt Q9GZU7); assay: inhibitors of CTDSP1, concentration-response testing, biochemical assay, absorbance-based, actives from ultra-high-throughput screening (AID 540297); format: functional
T3 sequence (Q9GZU7 whole entry): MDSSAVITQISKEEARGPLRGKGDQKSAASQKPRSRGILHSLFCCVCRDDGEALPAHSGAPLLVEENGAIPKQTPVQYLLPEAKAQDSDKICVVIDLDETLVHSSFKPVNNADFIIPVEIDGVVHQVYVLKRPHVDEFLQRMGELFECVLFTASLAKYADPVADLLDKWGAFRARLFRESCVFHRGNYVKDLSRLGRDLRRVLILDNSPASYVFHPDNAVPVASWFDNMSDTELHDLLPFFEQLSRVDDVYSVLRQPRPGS

[6] = molecular target: Eukaryotic translation initiation factor 4E (Mus musculus, UniProt P63073); assay: eIF4E–eIF4G protein interaction inhibitors, dose response, biochemical, TR-FRET (AID 855); format: functional;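 further: potency for disrupting eIF4E binding to eIF4GI seen as loss of FRET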
Sequence of Eukaryotic translation initiation factor 4E (P63073 whole entry): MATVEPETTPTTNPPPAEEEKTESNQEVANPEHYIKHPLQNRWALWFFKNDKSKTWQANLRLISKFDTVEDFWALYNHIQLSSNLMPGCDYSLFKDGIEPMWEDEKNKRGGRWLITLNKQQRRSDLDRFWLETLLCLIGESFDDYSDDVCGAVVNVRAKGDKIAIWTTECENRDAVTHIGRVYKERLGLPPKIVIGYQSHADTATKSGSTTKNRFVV

[7] = inhibitors of intracellular T. cruzi replication, confirmation, NIH3T3 host cells, beta-gal luminescence (AID 2044); format: functional, cell-based;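 further: intracellular parasites grown in NIH/3T3 mouse fibroblasts as host cells; luminescent beta-galactosidase reporter signal from transgenic T. cruzi replicating inside host cells; inhibitors lower the luminescence signal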
BJ [8] = assay: cytotoxicity toward BJ-TERT-LT-ST fibroblasts, dose response, cell-based, RAS-independent, luminescence (AID 1935); format: functional; settings: Homo sapiens;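 further: BJ fibroblasts immortalized with TERT plus LT and ST oncogenes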
BJ [9] = assay: cytotoxicity toward BJ-TERT fibroblasts, dose response, cell-based, RAS-independent, luminescence (AID 1933); format: functional; settings: Homo sapiens
[10] = cytotoxicity toward NIH3T3 fibroblasts, dose response, counter-screen, cell-based, ATP luminescence, mouse fibroblasts (AID 2010); format: functional;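 further: cells exposed to compound for about 90 hours before reading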
[11] = cytotoxicity toward DRD oncogenic fibroblasts, dose response, cell-based, non-viral oncogenic, luminescence (AID 1934); format: functional; settings: Homo sapiens
BJ [12] = assay: cells; format: functional, cell-based; settings: Homo sapiens
[13] = cytotoxicity in HEK-293T cells, dose response, cytotoxicity control for TCR NF-kB inhibitor project, luminescence, T-cell screen hits (AID 489026); format: functional, cell-based;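 further: cells exposed to compound about 14 hours before the viability readout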
Cytochrome P450 2D6 = Cytochrome P450 2D6 (Homo sapiens, UniProt P10635);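 further: CYP2D6 member of a cytochrome P450 panel assay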
Sequence of Cytochrome P450 2D6 (P10635 whole entry): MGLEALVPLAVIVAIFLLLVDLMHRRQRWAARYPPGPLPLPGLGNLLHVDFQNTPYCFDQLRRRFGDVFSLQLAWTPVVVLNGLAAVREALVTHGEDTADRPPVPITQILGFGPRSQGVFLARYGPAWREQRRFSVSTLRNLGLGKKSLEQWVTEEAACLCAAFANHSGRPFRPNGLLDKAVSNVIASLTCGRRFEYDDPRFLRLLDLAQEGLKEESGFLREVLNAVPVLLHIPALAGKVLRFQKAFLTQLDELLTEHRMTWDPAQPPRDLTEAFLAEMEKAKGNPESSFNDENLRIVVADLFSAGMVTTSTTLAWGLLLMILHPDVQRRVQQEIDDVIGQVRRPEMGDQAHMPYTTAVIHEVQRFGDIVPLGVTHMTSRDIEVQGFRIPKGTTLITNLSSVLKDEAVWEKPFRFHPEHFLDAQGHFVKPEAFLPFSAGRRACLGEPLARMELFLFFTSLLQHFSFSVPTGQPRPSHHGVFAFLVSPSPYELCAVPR

[14] = molecular target: T4, Heat shock factor protein 1 (Mus musculus, UniProt P38532); assay: inhibition of MG132-induced HSE-luciferase signal, confirmation, cell-based, NIH3T3, luminescence, dose retest (AID 2382); format: functional;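 further: NIH3T3 fibroblasts with HSF1-driven luciferase reporter stressed by proteasome inhibitor MG132; luminescence from HSF1-driven luciferase expression after 8 hours of MG132 stress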
T4 sequence (P38532 whole entry): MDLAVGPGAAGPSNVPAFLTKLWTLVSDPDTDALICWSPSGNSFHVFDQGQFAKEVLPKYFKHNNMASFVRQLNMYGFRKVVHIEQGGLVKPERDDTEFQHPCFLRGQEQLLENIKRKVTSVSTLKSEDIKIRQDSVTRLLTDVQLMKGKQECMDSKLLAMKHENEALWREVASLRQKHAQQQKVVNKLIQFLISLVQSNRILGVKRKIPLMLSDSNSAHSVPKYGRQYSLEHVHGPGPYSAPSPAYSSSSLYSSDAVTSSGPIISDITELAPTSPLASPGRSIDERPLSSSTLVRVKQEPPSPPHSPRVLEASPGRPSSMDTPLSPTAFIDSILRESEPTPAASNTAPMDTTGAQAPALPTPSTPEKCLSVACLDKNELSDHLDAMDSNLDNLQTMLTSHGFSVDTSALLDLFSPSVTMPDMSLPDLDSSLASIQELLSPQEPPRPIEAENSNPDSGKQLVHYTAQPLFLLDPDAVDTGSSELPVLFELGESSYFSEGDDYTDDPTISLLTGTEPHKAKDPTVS

[15] = inhibitors of PGC1a acetylation in cells, dose response, cell-based, cherry-picked samples (AID 720514); format: functional;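 further: potency may reflect raised or lowered acetylation signal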
[16] = molecular target: T5, Short transient receptor potential channel 4 (Mus musculus, UniProt Q9QUQ5); assay: mouse TRPC4 channel activators, dose response, cell-based, HEK293 TRPC4/mu-opioid, Fluo-4 calcium (AID 434937); format: functional
T5 sequence (Q9QUQ5 whole entry): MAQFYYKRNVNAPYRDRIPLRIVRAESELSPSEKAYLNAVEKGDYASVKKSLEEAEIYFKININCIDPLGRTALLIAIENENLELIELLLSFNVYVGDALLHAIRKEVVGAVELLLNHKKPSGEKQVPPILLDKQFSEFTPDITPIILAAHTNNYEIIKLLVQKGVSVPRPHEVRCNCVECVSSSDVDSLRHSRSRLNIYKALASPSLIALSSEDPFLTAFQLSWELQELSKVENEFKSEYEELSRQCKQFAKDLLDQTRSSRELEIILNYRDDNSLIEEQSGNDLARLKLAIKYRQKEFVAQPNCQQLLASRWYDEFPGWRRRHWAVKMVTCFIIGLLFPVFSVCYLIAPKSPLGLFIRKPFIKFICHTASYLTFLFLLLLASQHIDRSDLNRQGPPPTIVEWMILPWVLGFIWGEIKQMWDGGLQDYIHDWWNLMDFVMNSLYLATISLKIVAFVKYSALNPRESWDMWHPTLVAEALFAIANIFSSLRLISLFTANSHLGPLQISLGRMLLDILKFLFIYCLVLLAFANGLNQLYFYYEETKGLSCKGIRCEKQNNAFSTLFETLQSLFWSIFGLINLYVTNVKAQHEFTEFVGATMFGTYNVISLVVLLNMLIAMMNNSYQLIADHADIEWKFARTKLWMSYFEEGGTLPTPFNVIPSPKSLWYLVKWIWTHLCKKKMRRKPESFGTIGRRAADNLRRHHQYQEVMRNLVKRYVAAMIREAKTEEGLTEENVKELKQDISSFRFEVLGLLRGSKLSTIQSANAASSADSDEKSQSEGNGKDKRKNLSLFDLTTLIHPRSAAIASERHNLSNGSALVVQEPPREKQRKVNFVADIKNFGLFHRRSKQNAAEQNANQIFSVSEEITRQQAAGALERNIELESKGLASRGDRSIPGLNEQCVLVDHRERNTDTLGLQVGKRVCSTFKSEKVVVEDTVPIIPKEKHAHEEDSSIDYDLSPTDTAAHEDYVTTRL

[17] = molecular target: T5, Short transient receptor potential channel 4; assay: mouse TRPC4 channel inhibitors, dose response, cell-based, HEK293 TRPC4/mu-opioid, Fluo-4 calcium (AID 434942); format: functional;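 further: potency of inhibitors blocking the TRPC4 calcium response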
[18] = HeLa 2N DNA content increase, dose response, cell-based, IC50 (AID 1117349); format: functional
[19] = HeLa 4N DNA content increase, dose response, cell-based, IC50 (AID 1117351); format: functional

Compound: CN1CCC(NCCC(c2ccc(F)cc2)c2ccc(Cl)cc2)CC1 (stereo unspecified)
IC50 [1]: 5.34 µM (active)

Compound: O=C(NNC(=O)C12CC3CC(CC(C3)C1)C2)c1cccc(O)c1
IC50 [3]: > 80 µM (inactive)

Compound: COc1ccc(C(=O)Nc2nnc(SCC(=O)Nc3ccc(NC(C)=O)cc3)s2)c(OC)c1
IC50 [3]: > 80 µM (inactive)

Compound: CC(=O)O[C@@]12CO[C@@H]1C[C@@H](O)[C@@]1(C)C(=O)[C@H](O)C3=C(C)[C@@H](OC(=O)[C@H](O)[C@@H](NC(=O)c4ccccc4)c4ccccc4)C[C@@](O)([C@@H](OC(=O)c4ccccc4)C12)C3(C)C (stereo partly specified)
EC50 [7]: < 0.1 µM (active)
EC50 (BJ [8]): 0.434 µM (inconclusive)
EC50 (BJ [9]): 0.645 µM (active)
EC50 [10]: 5.97 µM (active)
EC50 (cells): 0.022 µM (active)
EC50 [11]: 0.567 µM (active)
EC50 (BJ [12]): 44.8 µM (inconclusive)
IC50 [1]: 0.157 µM (active)
IC50 [13]: > 80 µM (inactive)

Compound: Cc1ccc(/C=C2\SC(=S)N(CCCC(=O)Nc3cccnc3)C2=O)cc1
EC50 [14]: 0.255 µM (active)
IC50 [3]: > 80 µM (inactive)

Compound: COC1=CC(=O)C(OC)=C(OC)C1=O
IC50 (Hexokinase HKDC1): 2.56 µM (active)

Compound: N#Cc1cccc(-c2ccc([C@@H]3[C@@H]4CN(Cc5ccccc5F)C[C@H]3N4)cc2)c1
AC50 [15]: 8.09 µM (active)

Compound: Cc1ccccc1Nc1nc(NCc2ccco2)c2ccccc2n1
EC50 [16]: 5.96 µM (active)
EC50 [7]: < 0.1 µM (active)
EC50 [10]: > 60 µM (not active)
EC50 (cells): 0.023 µM (active)
EC50 [17]: 1.06 µM (active)

Compound: CCCCCCCCCCCCCCCCNc1ccc(C(=O)O)cc1 [CETABEN]
IC50 [18]: > 10 µM (inactive)
IC50 [19]: > 10 µM (inactive)

The next lines start with the values.

IC50 (Prothrombin): > 50 µM (not active)
Compound: COc1cccc(-c2nnc(SCC(=O)Nc3ccc4c(c3)OCCO4)n2Cc2ccco2)c1

EC50 [2]: 4.21 µM (active)
Compound: O=C(Nc1cccnc1)Nc1ccc(F)c(Cl)c1

IC50 (Hexokinase HKDC1): 20.4 µM (inactive)
Compound: COc1ccc(OC)c2nc(O)c(CCNC(=O)c3cc4ccccc4o3)cc12

IC50 (Prothrombin): 2.17 µM (active)
Compound: CC(=O)c1sc2ccccc2c1OC(=O)c1ccco1

AC50 (Trypsin): 6.54 µM (active)
Compound: O=C(NC1CC1)c1ccc2c(c1)N(Cc1ccccc1)CCS2

IC50 (Prothrombin): > 50 µM (not active)
Compound: O=C(COc1ccc(S(=O)(=O)Nc2ccccc2)cc1)N1CCOCC1

IC50 [4]: > 50 µM (not active)
Compound: Cc1cccc(NCc2ccc(O)c3ncccc23)c1

IC50 [5]: 12.5 µM (active)
IC50 [6]: 50 µM (inactive)
Compound: CN(Cc1ccccc1)C(=O)COC(=O)/C=C/c1ccco1

AC50 (Cytochrome P450 2D6): 15.8 µM (inconclusive)
IC50 [6]: > 64 µM (inactive)
Compound: CC(C)(C)c1[nH]nc2c1C(c1ccc(OC(=O)c3ccco3)cc1)C(C#N)=C(N)O2 (stereo unspecified)

IC50 [6]: > 64 µM (inactive)
Compound: CCSc1ccc2nnc(-c3cccc(F)c3)n2n1

EC50 [2]: 5.76 µM (active)
Compound: O=C(Nc1ccc(F)nc1)Nc1cccc(F)c1

Source: ChEMBL document CHEMBL1201862, “PubChem BioAssay data set” (2004)
